The text below walks through data of patent publication US11555072B2, “A33 antibody compositions and methods of using the same in radioimmunotherapy” (MEMORIAL SLOAN KETTERING CANCER CENTER, priority 2017, dated 2023).

The experiment concerns T cells. Put plainly: In vivo T cell proliferation assay. To be noted: CFSE-labeled PBMCs + Colo205 s.c. in DKO mice, antibody i.v. next day, tumors analyzed 4 days later. As for the experimental part: To determine if T cells can be activated in vivo, an in vivo proliferation assay was conducted by mixing CFSE-labeled PBMCs with Colo205 cells and the mixture was implanted subcutaneously onto DKO mice. huA33-BsAb was injected intravenously the next day and the tumors were isolated after another 4 days and analyzed by FACS.

On to “huA33-BsAb: huA33 IgG with humanized OKT3 scFv fused to light chain C-terminus, N297A and K322A; SEQ ID NO: 19 and 21”, for which the “CD4(+) and CD8(+) T cells that upregulated CD25 expression while undergoing cell division” value was “around 25%”.
